According to patent US10865387B2, “Methods of obtaining pancreatic endocrine cells” (The University Court of the University of Aberdeen, priority 2014, dated 2020):

Assays:
[1] = tested on: human exocrine enriched fraction (EEF); assay: RT-qPCR of hormone and transcription factor mRNA in reprogrammed exocrine cells; type: cell-based
Method: After 48 h the cells were incubated for another 72 h in serum free medium (SFM) prepared with RPMI 1640, insulin-transferrin-selenium (Gibco) and 1% bovine serum albumin (Sigma), supplemented with 10 μM SB431542, 2 μM Y27632, 1 μM 5-Aza-2′deoxycytidine and 10 mM sodium butyrate (all from Sigma). On the next day the cells were incubated for 4 h with the adenoviruses encoding pancreatic transcription factors. On the following day the medium was changed for SFM supplemented with 1 nM betacellulin (R&D systems, Abingdon, UK), 10 nM exendin-4 and 10 mM nicotinamide (both from Sigma). The medium was changed every two days for another 6 days before harvesting.
Recombinant adenoviruses encoding the mouse sequences of PDX1, MAFA, NGN3 and PAX4 (Swales et al., 2012) were prepared using the Ad-Easy™ system (Agilent Technologies, Edinburgh, UK). The adenoviruses containing PDX1 and NGN3 also expressed GFP through a downstream CMV promoter. Viral transduction was performed in SFM for 4 h at a multiplicity of infection (MOI) of 100 for each virus.
QRT/PCR was performed as previously described (Lima et al., 2012. Data were analysed using the 2^−ΔΔCT method. Statistical analysis was performed using PRISM software and the student's t-test or one-way ANOVA followed by the Dunnet's post-hoc test, as appropriate. The list of TaqMan probes are listed in Table 1:
Knockdown of Arx in transdifferentiating cells was performed by transfection with a pool of specific targeting small inhibitory RNAs, or scrambled controls (Dharmacon, Loughborough, UK). 100 nM siRNA was transfected on day 6 of the transdifferentiation protocol using Dharmafect 1 (Dharmacon), according to the manufacturer's instructions.
EEF cells were plated directly from the low purity fractions obtained following islet isolation. EEF cells were cultured as a monolayer for two days and then treated with SB, Y2, Aza and NaBu for 3 days. […]

[2] = tested on: human exocrine enriched fraction (EEF); assay: Insulin, C-peptide and glucagon content of cell lysates by ELISA; type: cell-based; conditions: reprogrammed (siARX) cells with ZnCl2 10 μM; FIG. 15
Excerpt: FIG. 10. ARX inhibition enhances beta cell maturation and decreases alpha cell differentiation. (A) C-peptide release by untreated (N/A), transdifferentiated cells in the absence of siARX (REP), siARX transdifferentiated cells (siARX) and in the absence of PAX4 (siARX-PAX4). C-peptide was detected from the culture medium by a specific human C-peptide ELISA. Data are representative of triplicate experiments. (B) Insulin, C-peptide and Proinsulin content of untreated, transdifferentiated cells in the absence of siARX (REP), siARX transdifferentiated cells (siARX) and human islets. The content of each peptide was detected by specific human ELISAs after cell lysis and normalised to the total protein content. Data are representative of triplicate experiments. (C) Glucagon content of untreated, transdifferentiated cells in the absence of siARX (REP), siARX transdifferentiated cells (siARX) and human islets. Glucagon was detected by a specific human ELISA after cell lysis and normalised to the total protein content. Data are representative of triplicate experiments. […]
[…] were measured using a human glucagon Quantikine ELISA kit (R&D Systems, Abingdon, UK), a human C-peptide ELISA kit (Millipore, Livingston, UK), a human prosinsulin ELISA kit or a human insulin ELISA kit (both from Mercodia, Uppsala, Sweden). […]

[3] = cells reprogrammed (siARX) with ZnCl2 10 μM, FIG. 14

Compound | insulin gene expression [1, 3] | mRNA encoding PAX4 [1, 3] | insulin (C-peptide) protein content [2] | efficiency of reprogramming (relative expression of insulin) on extracellular matrix ([1]; PDX1/MAFA/NGN3/PAX4 protocol, compared with fibronectin, poly-lysine, collagen type I and IV, FIG. 4)
[Cl-].[Cl-].[Zn+2] [ZnCl2] | significant effect | increased levels | stimulatory effect | –
laminin | – | – | – | improves the efficiency of reprogramming
